Measurements: BigSolDB 2.1

O=c1nc[nH]c2[nH]ncc12
Settings	solubility (mole fraction)
in 1,4-dioxane, 283.15 K	2.91e-05
in 1,4-dioxane, 288.15 K	3.71e-05
in 1,4-dioxane, 293.15 K	4.64e-05
in 1,4-dioxane, 298.15 K	5.74e-05
in 1,4-dioxane, 303.15 K	7.03e-05
in 1,4-dioxane, 308.15 K	8.43e-05
in 1,4-dioxane, 313.15 K	0.000102
in 1,4-dioxane, 318.15 K	0.000123
in 1,4-dioxane, 323.15 K	0.000148
in 1,4-dioxane, 328.15 K	0.000178
in 1,4-dioxane, 333.15 K	0.000204
in 2-butanone, 278.15 K	0.000783
in 2-butanone, 283.15 K	0.000954
in 2-butanone, 288.15 K	0.00115
in 2-butanone, 293.15 K	0.00138
in 2-butanone, 298.15 K	0.00165
in 2-butanone, 303.15 K	0.00196
in 2-butanone, 308.15 K	0.00231
in 2-butanone, 313.15 K	0.00271
in 2-butanone, 318.15 K	0.00316
in 2-butanone, 323.15 K	0.00367
in 2-butanone, 328.15 K	0.00425
in 2-butanone, 333.15 K	0.00491
in DMF, 278.15 K	0.00223
in DMF, 283.15 K	0.00266
in DMF, 288.15 K	0.00316
in DMF, 293.15 K	0.00373
in DMF, 298.15 K	0.00437
in DMF, 303.15 K	0.00509
in DMF, 308.15 K	0.00591
in DMF, 313.15 K	0.00683
in DMF, 318.15 K	0.00785
in DMF, 323.15 K	0.00898
in DMF, 328.15 K	0.01
in DMF, 333.15 K	0.0121
in NMP, 278.15 K	0.0151
in NMP, 283.15 K	0.017
in NMP, 288.15 K	0.02
in NMP, 293.15 K	0.022
in NMP, 298.15 K	0.0251
in NMP, 303.15 K	0.0281
in NMP, 308.15 K	0.032
in NMP, 313.15 K	0.035
in NMP, 318.15 K	0.0391
in NMP, 323.15 K	0.0431
in NMP, 328.15 K	0.0481
in NMP, 333.15 K	0.0531
in acetone, 278.15 K	0.000653
in acetone, 283.15 K	0.000797
in acetone, 288.15 K	0.000966
in acetone, 293.15 K	0.00116
in acetone, 298.15 K	0.00139
in acetone, 303.15 K	0.00166
in acetone, 308.15 K	0.00196
in acetone, 313.15 K	0.00231
in acetone, 318.15 K	0.0027
in acetone, 323.15 K	0.00314
in acetone, 328.15 K	0.00365
in acetone, 333.15 K	0.00421
in acetonitrile, 278.15 K	9.6e-05
in acetonitrile, 283.15 K	0.000117
in acetonitrile, 288.15 K	0.000141
in acetonitrile, 293.15 K	0.00017
in acetonitrile, 298.15 K	0.000204
in acetonitrile, 303.15 K	0.000239
in acetonitrile, 308.15 K	0.000286
in acetonitrile, 313.15 K	0.000331
in acetonitrile, 318.15 K	0.000384
in acetonitrile, 323.15 K	0.000448
in acetonitrile, 328.15 K	0.000522
in acetonitrile, 333.15 K	0.00059
in cyclohexane, 283.15 K	4.74e-07
in cyclohexane, 288.15 K	6.38e-07
in cyclohexane, 293.15 K	7.68e-07
in cyclohexane, 298.15 K	1.02e-06
in cyclohexane, 303.15 K	1.24e-06
in cyclohexane, 308.15 K	1.61e-06
in cyclohexane, 313.15 K	1.97e-06
in cyclohexane, 318.15 K	2.48e-06
in cyclohexane, 323.15 K	3.05e-06
in cyclohexane, 328.15 K	3.77e-06
in cyclohexane, 333.15 K	4.37e-06
in ethanol, 278.15 K	2.46e-05
in ethanol, 283.15 K	3.28e-05
in ethanol, 288.15 K	4.27e-05
in ethanol, 293.15 K	5.5e-05
in ethanol, 298.15 K	6.99e-05
in ethanol, 303.15 K	8.97e-05
in ethanol, 308.15 K	0.000109
in ethanol, 313.15 K	0.000139
in ethanol, 318.15 K	0.000172
in ethanol, 323.15 K	0.000211
in ethanol, 328.15 K	0.000258
in ethanol, 333.15 K	0.00031
in isopropanol, 278.15 K	3.64e-05
in isopropanol, 283.15 K	4.68e-05
in isopropanol, 288.15 K	5.84e-05
in isopropanol, 293.15 K	7.35e-05
in isopropanol, 298.15 K	9.2e-05
in isopropanol, 303.15 K	0.000112
in isopropanol, 308.15 K	0.000138
in isopropanol, 313.15 K	0.000171
in isopropanol, 318.15 K	0.000204
in isopropanol, 323.15 K	0.000245
in isopropanol, 328.15 K	0.000296
in isopropanol, 333.15 K	0.000346
in methanol, 278.15 K	2.05e-05
in methanol, 283.15 K	2.7e-05
in methanol, 288.15 K	3.61e-05
in methanol, 293.15 K	4.65e-05
in methanol, 298.15 K	5.97e-05
in methanol, 303.15 K	7.6e-05
in methanol, 308.15 K	9.62e-05
in methanol, 313.15 K	0.00012
in methanol, 318.15 K	0.000152
in methanol, 323.15 K	0.000189
in methanol, 328.15 K	0.000235
in methanol, 333.15 K	0.000283
in n-butanol, 278.15 K	6.63e-05
in n-butanol, 283.15 K	8.13e-05
in n-butanol, 288.15 K	0.0001
in n-butanol, 293.15 K	0.000124
in n-butanol, 298.15 K	0.000151
in n-butanol, 303.15 K	0.000184
in n-butanol, 308.15 K	0.000219
in n-butanol, 313.15 K	0.00026
in n-butanol, 318.15 K	0.000312
in n-butanol, 323.15 K	0.000366
in n-butanol, 328.15 K	0.000429
in n-butanol, 333.15 K	0.000496
in n-heptanol, 278.15 K	0.000127
in n-heptanol, 283.15 K	0.000149
in n-heptanol, 288.15 K	0.000175
in n-heptanol, 293.15 K	0.000205
in n-heptanol, 298.15 K	0.000239
in n-heptanol, 303.15 K	0.000276
in n-heptanol, 308.15 K	0.000318
in n-heptanol, 313.15 K	0.000365
in n-heptanol, 318.15 K	0.000418
in n-heptanol, 323.15 K	0.000473
in n-heptanol, 328.15 K	0.000544
in n-heptanol, 333.15 K	0.000614
in n-hexanol, 278.15 K	8.05e-05
in n-hexanol, 283.15 K	9.84e-05
in n-hexanol, 288.15 K	0.000119
in n-hexanol, 293.15 K	0.000145
in n-hexanol, 298.15 K	0.000177
in n-hexanol, 303.15 K	0.000214
in n-hexanol, 308.15 K	0.000259
in n-hexanol, 313.15 K	0.000302
in n-hexanol, 318.15 K	0.00036
in n-hexanol, 323.15 K	0.00042
in n-hexanol, 328.15 K	0.000499
in n-hexanol, 333.15 K	0.000566
in n-propanol, 278.15 K	4.85e-05
in n-propanol, 283.15 K	6.16e-05
in n-propanol, 288.15 K	7.66e-05
in n-propanol, 293.15 K	9.52e-05
in n-propanol, 298.15 K	0.000114
in n-propanol, 303.15 K	0.00014
in n-propanol, 308.15 K	0.000164
in n-propanol, 313.15 K	0.000201
in n-propanol, 318.15 K	0.000247
in n-propanol, 323.15 K	0.000293
in n-propanol, 328.15 K	0.000349
in n-propanol, 333.15 K	0.000403
in water, 278.15 K	8.71e-06
in water, 283.15 K	1.18e-05
in water, 288.15 K	1.57e-05
in water, 293.15 K	2.12e-05
in water, 298.15 K	2.94e-05
in water, 303.15 K	3.83e-05
in water, 308.15 K	5.01e-05
in water, 313.15 K	6.44e-05
in water, 318.15 K	8.32e-05
in water, 323.15 K	0.000107
in water, 328.15 K	0.000134
in water, 333.15 K	0.000167
